Patent US20250049937A1, “NOVEL AURISTATIN ANALOGS AND IMMUNOCONJUGATES THEREOF” (priority 2021, published 2025)

test system: HCC1954 breast ductal carcinoma cells; assay: HCC1954 5-day cell viability assay (Cell Titer Glo 2.0); format: cell-based; details: Homo sapiens, HCC1954, 120 h, read-out: IC50 (HCC1954 5-Day Assay)
Method: (§1) *Biological assay protocol: HCC1954 breast ductal carcinoma or SK-BR-3 cells (ATCC, Manassas, VA, USA) were seeded into 384-well white-walled culture plates and allowed to adhere for 2-4 hours. Cells were then treated with test articles at least in duplicate by addition of 5-fold serially diluted test articles prepared at 2× final concentration and incubated at 37° C. for 120 hours. Cell viability following treatment was determined by Cell Titer Glo 2.0 Assay (Promega, Madison, WI, USA) and normalized to non-treated controls. Dose-response relationships were analyzed using GraphPad Prism (La Jolla, CA, USA), and IC50 values were derived from non-linear regression analyses using a 4-parameter logistic equation
as §1, with “HCC1954” for “*Biological assay protocol: HCC1954”, “carcinoma” for “carcinoma or SK-BR-3”, “treated” for “treated with test articles”, “equation.” for “equation”

SMILES	IC50 [nM]
CC[C@H](C)[C@@H]([C@@H](CC(=O)N1CCC[C@H]1[C@H](OC)[C@@H](C)C(=O)N(C)[C@H](CC#N)Cc1cccc(N)c1)OC)N(C)C(=O)[C@@H](NC(=O)[C@@H](C)N(C)C)C(C)C [Compound 9, (S)—N-((3R,4S,5S)-1-((S)-2-((1R,2R)-3-(((S)-1-(3-aminophenyl)-3-cyanopropan-2-yl)(methyl)amino)-1-methoxy-2-methyl-3-oxopropyl)pyrrolidin-1-yl)-3-methoxy-5-methyl-1-oxoheptan-4-yl)-2-((R)-2-(dimethylamino)propanamido)-N,3-dimethylbutanamide]	0.58
CC[C@H](C)[C@@H]([C@@H](CC(=O)N1CCC[C@H]1[C@H](OC)[C@@H](C)C(=O)N[C@H](CC#N)Cc1cccc(N)c1)OC)N(C)C(=O)[C@@H](NC(=O)[C@H](C)N(C)C)C(C)C [Compound 4, (S)—N-((3R,4S,5S)-1-((S)-2-((1R,2R)-3-(((S)-1-(3-aminophenyl)-3-cyanopropan-2-yl)amino)-1-methoxy-2-methyl-3-oxopropyl)pyrrolidin-1-yl)-3-methoxy-5-methyl-1-oxoheptan-4-yl)-2-((S)-2-(dimethylamino)propanamido)-N,3-dimethylbutanamide]	0.49
CC[C@H](C)[C@@H]([C@@H](CC(=O)N1CCC[C@H]1[C@H](OC)[C@@H](C)C(=O)N(C)[C@H](CC#N)Cc1cccc(N)c1)OC)N(C)C(=O)[C@@H](NC(=O)[C@H](C)N(C)C)C(C)C [Compound 8, (S)—N-((3R,4S,5S)-1-((S)-2-((1R,2R)-3-(((S)-1-(3-aminophenyl)-3-cyanopropan-2-yl)(methyl)amino)-1-methoxy-2-methyl-3-oxopropyl)pyrrolidin-1-yl)-3-methoxy-5-methyl-1-oxoheptan-4-yl)-2-((S)-2-(dimethylamino)propanamido)-N,3-dimethylbutanamide]	0.22
CC[C@H](C)[C@@H]([C@@H](CC(=O)N1CCC[C@H]1[C@H](OC)[C@@H](C)C(=O)N[C@H](CC#N)Cc1cccc(N)c1)OC)N(C)C(=O)[C@@H](NC(=O)[C@@H](C)N(C)C)C(C)C [Compound 5, (S)—N-((3R,4S,5S)-1-((S)-2-((1R,2R)-3-(((S)-1-(3-aminophenyl)-3-cyanopropan-2-yl)amino)-1-methoxy-2-methyl-3-oxopropyl)pyrrolidin-1-yl)-3-methoxy-5-methyl-1-oxoheptan-4-yl)-2-((R)-2-(dimethylamino)propanamido)-N,3-dimethylbutanamide]	0.37
CC[C@H](C)[C@@H]([C@@H](CC(=O)N1CCC[C@H]1[C@H](OC)[C@@H](C)C(=O)N[C@H](CC#N)Cc1cccc(N)c1)OC)N(C)C(=O)[C@@H](NC(=O)CN(C)C)C(C)C [Compound 6, (S)—N-((3R,4S,5S)-1-((S)-2-((1R,2R)-3-(((S)-1-(3-aminophenyl)-3-cyanopropan-2-yl)amino)-1-methoxy-2-methyl-3-oxopropyl)pyrrolidin-1-yl)-3-methoxy-5-methyl-1-oxoheptan-4-yl)-2-(2-(dimethylamino)acetamido)-N,3-dimethylbutanamide]	0.78
CC[C@H](C)[C@@H]([C@@H](CC(=O)N1CCC[C@H]1[C@H](OC)[C@@H](C)C(=O)N(C)[C@H](CC#N)Cc1cccc(N)c1)OC)N(C)C(=O)[C@@H](NC(=O)[C@H](C(C)C)N(C)C)C(C)C [Compound 7, (S)—N-((3R,4S,5S)-1-((S)-2-((1R,2R)-3-(((S)-1-(3-aminophenyl)-3-cyanopropan-2-yl)(methyl)amino)-1-methoxy-2-methyl-3-oxopropyl)pyrrolidin-1-yl)-3-methoxy-5-methyl-1-oxoheptan-4-yl)-2-((S)-2-(dimethylamino)-3-methylbutanamido)-N,3-dimethylbutanamide]	0.07
CC[C@H](C)[C@@H]([C@@H](CC(=O)N1CCC[C@H]1[C@H](OC)[C@@H](C)C(=O)N[C@H](CC#N)Cc1cccc(N)c1)OC)N(C)C(=O)[C@@H](NC(=O)[C@@H](C(C)C)N(C)C)C(C)C [Compound 3, (S)—N-((3R,4S,5S)-1-((S)-2-((1R,2R)-3-(((S)-1-(3-aminophenyl)-3-cyanopropan-2-yl)amino)-1-methoxy-2-methyl-3-oxopropyl)pyrrolidin-1-yl)-3-methoxy-5-methyl-1-oxoheptan-4-yl)-2-((R)-2-(dimethylamino)-3-methylbutanamido)-N,3-dimethylbutanamide]	0.12
CC[C@H](C)[C@@H]([C@@H](CC(=O)N1CCC[C@H]1[C@H](OC)[C@@H](C)C(=O)N[C@H](CC#N)Cc1cccc(N)c1)OC)N(C)C(=O)[C@@H](NC(=O)[C@H](C(C)C)N(C)C)C(C)C [Compound 2, (S)—N-((3R,4S,5S)-1-((S)-2-((1R,2R)-3-(((S)-1-(3-aminophenyl)-3-cyanopropan-2-yl)amino)-1-methoxy-2-methyl-3-oxopropyl)pyrrolidin-1-yl)-3-methoxy-5-methyl-1-oxoheptan-4-yl)-2-((S)-2-(dimethylamino)-3-methylbutanamido)-N,3-dimethylbutanamide]	0.37
CC[C@H](C)[C@@H]([C@@H](CC(=O)N1CCC[C@H]1[C@H](OC)[C@@H](C)C(=O)N[C@H](CC#N)Cc1ccc(N)cc1)OC)N(C)C(=O)[C@@H](NC(=O)[C@H](C(C)C)N(C)C)C(C)C [Compound 1, (S)—N-((3R,4S,5S)-1-((S)-2-((1R,2R)-3-(((S)-1-(4-aminophenyl)-3-cyanopropan-2-yl)amino)-1-methoxy-2-methyl-3-oxopropyl)pyrrolidin-1-yl)-3-methoxy-5-methyl-1-oxoheptan-4-yl)-2-((S)-2-(dimethylamino)-3-methylbutanamido)-N,3-dimethylbutanamide]	0.31
